The values that follow are results of earlier work, collected in US20200397744A1, “COMPOSITIONS COMPRISING CO-CRYSTALS OF STILBENOIDS AND CANNABINOIDS” (priority 2018, published 2020).

The conditions of data set [1]: in vivo.
The test system of another data set is cancer cell lines. Conditions: cancer cell lines in vitro.

For the molecule `COc1cc(/C=C/c2ccc(O)cc2)cc(OC)c1` [pterostilbene, trans-3,5-dimethoxy-4′-hydroxystilbene], the bioavailability result in data set [1] is reported as “poor bioavailability”. Moreover, the cytotoxic activity entry in the data set with cancer cell lines is on record as “cytotoxic activity”.
Consider `CN(C)C(=N)N=C(N)N` [metformin], for which the “decrease of plasma glucose levels” value with hyperglycemic rats is recorded as 48%.
